Assay results taken from patent US12370235B2, “Synthetic, non-natural antimicrobial peptides inspired by Staphylococcus auricularis delta toxin” (University of Saskatchewan, priority 2021, dated 2025).
Ends that are not written are not given here.

Key:
[1] = tested on: S. aureus ATCC 29213; assay: MIC, broth dilution; format: cell-based, Staphylococcus aureus; settings: Table 5; STIP3 variants, highest concentration 100 μg/mL
Method: (§1) MIC determination. MICs were measured using peptides with 95% purity. For bacterial studies, cation-adjusted Mueller Hinton (MH) broth was used as the growth medium whereas Yeast Peptone Dextrose (YPD; 10 g/L yeast extract, 20 g/L peptone, 20 g/L dextrose) was used for Candida spp. and other yeast. Microorganisms were diluted to an optical density of […] in MH or YPD broth and a 180 μl volume was mixed with 20 μl of peptide arrayed as a 2-fold dilution series in a flat-bottom 96-well microtitre plate. A control was performed using 20 μl of sterile water. Plates were incubated as standing cultures overnight at 37° C.
(§2) Determination of minimum inhibitory concentrations. The MICs were measured for bioactive peptides identified from the initial screen. For bacterial studies, cation-adjusted Mueller Hinton (MH) broth was used as the growth medium whereas YPD was used for C. albicans. Bacterial cultures were diluted to a OD value of 6×10^−4 in MH broth and a 180 μl volume was mixed with 20 μl of peptide arrayed as 2-fold dilution series in a 96-well plate. For the positive control, 20 μl of sterile water was used. Plates were incubated as standing cultures overnight at 37° C. The lowest peptide concentration that resulted no observed microbial growth after an overnight treatment was defined as the MIC.

[2] = tested on: S. aureus ATCC 33592 (MRSA SCCmec type III); assay: MIC, broth dilution; format: cell-based, Staphylococcus aureus; settings: Table 5; STIP3 variants, highest concentration 100 μg/mL
Method: as §1, §2

[3] = tested on: S. aureus ATCC BAA-1683 (MRSA SCCmec type IV); assay: MIC, broth dilution; format: cell-based, Staphylococcus aureus; settings: Table 5; STIP3 variants, highest concentration 100 μg/mL
Method: as §1, §2

[4] = tested on: S. aureus ATCC BAA-2094 (MRSA SCCmec type V); assay: MIC, broth dilution; format: cell-based, Staphylococcus aureus; settings: Table 5; STIP3 variants, highest concentration 100 μg/mL
Method: as §1, §2

[5] = tested on: S. aureus ATCC BAA-2313 (MRSA SCCmec type XI); assay: MIC, broth dilution; format: cell-based, Staphylococcus aureus; settings: Table 5; STIP3 variants, highest concentration 100 μg/mL
Method: as §1, §2

[6] = tested on: S. aureus ATCC BAA-41 (MRSA SCCmec type II); assay: MIC, broth dilution; format: cell-based, Staphylococcus aureus; settings: Table 5; STIP3 variants, highest concentration 100 μg/mL
Method: as §1, §2

[7] = tested on: S. aureus ATCC BAA-42 (MRSA SCCmec type VI); assay: MIC, broth dilution; format: cell-based, Staphylococcus aureus; settings: Table 5; STIP3 variants, highest concentration 100 μg/mL
Method: as §1, §2

[8] = tested on: S. aureus ATCC BAA-44 (MRSA SCCmec type I); assay: MIC, broth dilution; format: cell-based, Staphylococcus aureus; settings: Table 5; STIP3 variants, highest concentration 100 μg/mL
Method: as §1, §2

[9] = tested on: Mannheimia haemolytica ATCC 33393; assay: MIC, broth dilution; format: cell-based; settings: Table 11; highest concentration 25 μg/mL
Method: as §1, §2
The ability of STIP3 variants to inhibit the growth of Mannheimia haemolytica ATCC 33393 was evaluated. This included an alanine scan of STIP3-1 (FIG. 8 & Table 10) as well as 30 rationally-designed STIPs that were evaluated in the preceding Examples against other pathogens (Table 11). Substitutions at a greater number of sites were tolerated in the context of antimicrobial activity. Moreover, the inclusion of basic natural and unnatural amino acids (e.g. lysine, ornithine, and arginine) at positions 3, 4 and 11 (i.e. X1, X2, and X4 of SEQ ID NO: 32) to afford a more uniformly cationic peptide increased activity against M. haemolytica.

[10] = tested on: C. albicans MYA-2876; assay: MIC, YPD broth; format: cell-based, Candida albicans; settings: Table 8
Method: as §1, §2

[11] = tested on: Candida duobushaemulonii AR 391; assay: MIC, YPD broth, CDC and FDA AR Candida isolate panel; format: cell-based; settings: Table 9 below the line: only 200 or 100 μg/mL tested; values reported as 100 are ≤100 μg/mL
Method: as §1

[12] = tested on: Candida duobushaemulonii AR 392; assay: as above; format: cell-based; settings: Table 9 below the line: only 200 or 100 μg/mL tested; values reported as 100 are ≤100 μg/mL
Method: as §1

[13] = tested on: Candida duobushaemulonii AR 394; assay: as above; format: cell-based; settings: Table 9 below the line: only 200 or 100 μg/mL tested; values reported as 100 are ≤100 μg/mL
Method: as §1

[14] = tested on: Candida haemulonii AR 393; assay: as above; format: cell-based; settings: Table 9 below the line: only 200 or 100 μg/mL tested; values reported as 100 are ≤100 μg/mL
Method: as §1

[15] = tested on: Candida haemulonii AR 395; assay: as above; format: cell-based; settings: Table 9 below the line: only 200 or 100 μg/mL tested; values reported as 100 are ≤100 μg/mL
Method: as §1

[16] = tested on: Candida krusei AR 397; assay: as above; format: cell-based; settings: Table 9 below the line: only 200 or 100 μg/mL tested; values reported as 100 are ≤100 μg/mL
Method: as §1

[17] = tested on: Candida lusitaniae AR 398; assay: as above; format: cell-based; settings: Table 9 below the line: only 200 or 100 μg/mL tested; values reported as 100 are ≤100 μg/mL
Method: as §1

[18] = tested on: Kodamae ohmeri AR 396; assay: as above; format: cell-based; settings: Table 9 below the line: only 200 or 100 μg/mL tested; values reported as 100 are ≤100 μg/mL
Method: as §1

[19] = tested on: Saccharomyces cerevisiae AR 399; assay: as above; format: cell-based; settings: Table 9 below the line: only 200 or 100 μg/mL tested; values reported as 100 are ≤100 μg/mL
Method: as §1

[20] = tested on: Saccharomyces cerevisiae AR 400; assay: as above; format: cell-based; settings: Table 9 below the line: only 200 or 100 μg/mL tested; values reported as 100 are ≤100 μg/mL
Method: as §1

Sequence	MIC S. aureus ATCC 29213 [1]	MIC S. aureus ATCC 33592 (III) [2]	MIC S. aureus ATCC BAA 1683 (IV) [3]	MIC S. aureus ATCC BAA 2094 (V) [4]	MIC S. aureus ATCC BAA 2313 (XI) [5]	MIC S. aureus ATCC BAA 41 (II) [6]	MIC S. aureus ATCC BAA 42 (VI) [7]	MIC S. aureus ATCC BAA 44 (I) [8]	MIC (μg/mL) M. haemolytica [9]	MIC C. albicans MYA-2876 [10]	MIC (μg/mL) Candida duobushaemulonii AR 391 [11]	MIC (μg/mL) Candida duobushaemulonii AR 392 [12]	MIC (μg/mL) Candida duobushaemulonii AR 394 [13]	MIC (μg/mL) Candida haemulonii AR 393 [14]	MIC (μg/mL) Candida haemulonii AR 395 [15]	MIC (μg/mL) Candida krusei AR 397 [16]	MIC (μg/mL) Candida lusitaniae AR 398 [17]	MIC (μg/mL) Kodamae ohmeri AR 396 [18]	MIC (μg/mL) Saccharomyces cerevisiae AR 399 [19]	MIC (μg/mL) Saccharomyces cerevisiae AR 400 [20]
TVGGLVKWILDTVKKFI [STIP3-5, TVGGLVKWILDTVKKFI]	50 µg/mL	25 µg/mL	25 µg/mL	25 µg/mL	25 µg/mL	25 µg/mL	12.5 µg/mL	50 µg/mL	25 µg/mL	100 µg/mL	> (values below the line were determined using two concentrations of peptide 200 or 100 μg/mL)	> (values below the line were determined using two concentrations of peptide 200 or 100 μg/mL)	> (values below the line were determined using two concentrations of peptide 200 or 100 μg/mL)	> (values below the line were determined using two concentrations of peptide 200 or 100 μg/mL)	> (values below the line were determined using two concentrations of peptide 200 or 100 μg/mL)	≤ 100 µg/mL	≤ 100 µg/mL	> (values below the line were determined using two concentrations of peptide 200 or 100 μg/mL)	≤ 100 µg/mL	≤ 100 µg/mL
TVGGLVKWILDTVKKFK [STIP3-7, TVGGLVKWILDTVKKFK]	> (no inhibition was observed at the highest concentration of peptide tested: 100 μg/mL for the STIP3 variants)	> (no inhibition was observed at the highest concentration of peptide tested: 100 μg/mL for the STIP3 variants)	> (no inhibition was observed at the highest concentration of peptide tested: 100 μg/mL for the STIP3 variants)	> (no inhibition was observed at the highest concentration of peptide tested: 100 μg/mL for the STIP3 variants)	> (no inhibition was observed at the highest concentration of peptide tested: 100 μg/mL for the STIP3 variants)	> (no inhibition was observed at the highest concentration of peptide tested: 100 μg/mL for the STIP3 variants)	> (no inhibition was observed at the highest concentration of peptide tested: 100 μg/mL for the STIP3 variants)	> (no inhibition was observed at the highest concentration of peptide tested: 100 μg/mL for the STIP3 variants)	25 µg/mL	50 µg/mL	> (values below the line were determined using two concentrations of peptide 200 or 100 μg/mL)	> (values below the line were determined using two concentrations of peptide 200 or 100 μg/mL)	> (values below the line were determined using two concentrations of peptide 200 or 100 μg/mL)	> (values below the line were determined using two concentrations of peptide 200 or 100 μg/mL)	> (values below the line were determined using two concentrations of peptide 200 or 100 μg/mL)	≤ 100 µg/mL	≤ 100 µg/mL	> (values below the line were determined using two concentrations of peptide 200 or 100 μg/mL)	≤ 100 µg/mL	≤ 100 µg/mL
